Laboratory results: ChEMBL document CHEMBL5120762, “Synthesis of 8-Fluoroneocryptolepine and Evaluation for Cytotoxic Activity against AGS Cancer Cells” (J Nat Prod, 2022)
Active and inactive are the calls of the source. The rule behind the calls is not given here.

Assays:
AGS [1] = test: Cytotoxicity against human AGS cells assessed as reduction in cell viability measured after 48 hrs by MTT assay; format: functional, cell-based
[2] = Cytotoxicity against human GES1 cells assessed as reduction in cell viability measured after 48 hrs by MTT assay; format: toxicity, cell-based
AGS [3] = test: Induction of apoptosis in human AGS cells assessed as appearance of bright blue fluorescence at 250 nM measured after 48 hrs by Hoechst 33258 staining based fluorescence microscopy; format: functional, cell-based
HCT-116 = test: Cytotoxicity against human HCT-116 cells assessed as reduction in cell viability measured after 48 hrs by MTT assay; format: functional, cell-based; conditions: HCT-116, 48 h
PANC-1 = test: Cytotoxicity against human PANC-1 cells assessed as reduction in cell viability measured after 48 hrs by MTT assay; format: functional, cell-based; conditions: PANC-1, 48 h
SMMC-7721 = test: Cytotoxicity against human SMMC-7721 cells assessed as reduction in cell viability measured after 48 hrs by MTT assay; format: functional, cell-based; conditions: SMMC-7721, 48 h
AGS [4] = test: Cytotoxicity against human AGS cells assessed as reduction in cell viability at 10 to 250 nM by MTT assay; format: functional, cell-based; conditions: dose 10-250 nM, time 24-72 hrs, TDE = time-dependent effect
AGS [5] = test: Antimigratory activity against human AGS cells measured after 48 hrs by crystal violet staining based transwell assay; format: functional, cell-based; conditions: dose 10-20 nM, DDE = dose-dependent effect
AGS [6] = test: Antimigratory activity against human AGS cells assessed as number of migrating cells at 10 to 20 nM measured after 48 hrs by crystal violet staining based transwell assay (reference value: 293); format: functional; conditions: dose 10-20 nM
AGS [7] = test: Induction of morphological changes in human AGS cells assessed as cytoplasm concentration at 50 nM measured after 48 hrs; format: functional, cell-based
AGS [8] = test: Induction of morphological changes in human AGS cells assessed as conversion pf nuclear pyknosis into dense matter at 50 nM measured after 48 hrs; format: functional, cell-based
AGS [9] = test: Induction of morphological changes in human AGS cells assessed as cell rounding at 50 to 250 nM measured after 48 hrs; format: functional, cell-based; conditions: dose 50-250 nM
AGS [10] = test: Induction of morphological changes in human AGS cells assessed as appearance of loosely arranged cells at 50 to 250 nM measured after 48 hrs; format: functional, cell-based; conditions: dose 50-250 nM
AGS [11] = test: Induction of morphological changes in human AGS cells assessed as weak cell adhesion at 50 to 250 nM measured after 48 hrs; format: functional, cell-based; conditions: dose 50-250 nM
AGS [12] = test: Cell cycle arrest in human AGS cells assessed as accumulation at G0/G1 phase at 10 nM measured after 24 hrs by propidium iodide staining based flow cytometry (reference value: 39.77%); format: functional
AGS [13] = test: Cell cycle arrest in human AGS cells assessed as accumulation at S phase at 10 nM measured after 24 hrs by propidium iodide staining based flow cytometry (reference value: 43.66%); format: functional
AGS [14] = test: Cell cycle arrest in human AGS cells assessed as accumulation at G2/M phase at 10 nM measured after 24 hrs by propidium iodide staining based flow cytometry (reference value: 16.56%); format: functional
AGS [15] = test: Cell cycle arrest in human AGS cells assessed as accumulation at G0/G1 phase at 20 nM measured after 24 hrs by propidium iodide staining based flow cytometry (reference value: 39.77%); format: functional
AGS [16] = test: Cell cycle arrest in human AGS cells assessed as accumulation at S phase at 20 nM measured after 24 hrs by propidium iodide staining based flow cytometry (reference value: 43.66%); format: functional
AGS [17] = test: Cell cycle arrest in human AGS cells assessed as accumulation at G2/M phase at 20 nM measured after 24 hrs by propidium iodide staining based flow cytometry (reference value: 16.56%); format: functional
AGS [18] = test: Induction of apoptosis in human AGS cells assessed as chromatin shrinkage at 250 nM measured after 48 hrs by Hoechst 33258 staining based fluorescence microscopy; format: functional, cell-based
AGS [19] = test: Induction of apoptosis in human AGS cells assessed as nuclear fragmentation at 250 nM measured after 48 hrs by Hoechst 33258 staining based fluorescence microscopy; format: functional, cell-based
AGS [20] = test: Induction of apoptosis in human AGS cells assessed as appearance of apoptotic bodies at 250 nM measured after 48 hrs by Hoechst 33258 staining based fluorescence microscopy; format: functional, cell-based
AGS [21] = test: Induction of apoptosis in human AGS cells measured after 48 hrs by Annexin V-Alexa Fluor 488/propidium iodide staining based flow cytometry; format: functional, cell-based; conditions: dose 10-250 nM, DDE = dose-dependent effect
AGS [22] = test: Induction of apoptosis in human AGS cells assessed as viable cells at 10 nM measured after 48 hrs by Annexin V-Alexa Fluor 488/propidium iodide staining based flow cytometry (reference value: 95.6%); format: functional; conditions: read-out: Activity
AGS [23] = test: Induction of apoptosis in human AGS cells assessed as early apoptotic cells at 10 nM measured after 48 hrs by Annexin V-Alexa Fluor 488/propidium iodide staining based flow cytometry (reference value: 0.4%); format: functional
AGS [24] = test: Induction of apoptosis in human AGS cells assessed as late apoptotic cells at 10 nM measured after 48 hrs by Annexin V-Alexa Fluor 488/propidium iodide staining based flow cytometry (reference value: 3.1%); format: functional
AGS [25] = test: Induction of apoptosis in human AGS cells assessed as necrotic cells at 10 nM measured after 48 hrs by Annexin V-Alexa Fluor 488/propidium iodide staining based flow cytometry (reference value: 0.9%); format: functional
AGS [26] = test: Induction of apoptosis in human AGS cells assessed as viable cells at 50 nM measured after 48 hrs by Annexin V-Alexa Fluor 488/propidium iodide staining based flow cytometry (reference value: 95.6%); format: functional; conditions: read-out: Activity
AGS [27] = test: Induction of apoptosis in human AGS cells assessed as early apoptotic cells at 50 nM measured after 48 hrs by Annexin V-Alexa Fluor 488/propidium iodide staining based flow cytometry (reference value: 0.4%); format: functional
AGS [28] = test: Induction of apoptosis in human AGS cells assessed as late apoptotic cells at 50 nM measured after 48 hrs by Annexin V-Alexa Fluor 488/propidium iodide staining based flow cytometry (reference value: 3.1%); format: functional
AGS [29] = test: Induction of apoptosis in human AGS cells assessed as necrotic cells at 50 nM measured after 48 hrs by Annexin V-Alexa Fluor 488/propidium iodide staining based flow cytometry (reference value: 0.9%); format: functional
AGS [30] = test: Induction of apoptosis in human AGS cells assessed as viable cells at 250 nM measured after 48 hrs by Annexin V-Alexa Fluor 488/propidium iodide staining based flow cytometry (reference value: 95.6%); format: functional; conditions: read-out: Activity
AGS [31] = test: Induction of apoptosis in human AGS cells assessed as early apoptotic cells at 250 nM measured after 48 hrs by Annexin V-Alexa Fluor 488/propidium iodide staining based flow cytometry (reference value: 0.4%); format: functional
AGS [32] = test: Induction of apoptosis in human AGS cells assessed as late apoptotic cells at 250 nM measured after 48 hrs by Annexin V-Alexa Fluor 488/propidium iodide staining based flow cytometry (reference value: 3.1%); format: functional
AGS [33] = test: Induction of apoptosis in human AGS cells assessed as necrotic cells at 250 nM measured after 48 hrs by Annexin V-Alexa Fluor 488/propidium iodide staining based flow cytometry (reference value: 0.9%); format: functional
AGS [34] = test: Induction of mitochondrial membrane potential loss in human AGS cells assessed as increase in green fluorescence at 10 to 250 nM measured after 48 hrs by JC-10 staining based fluorescence microscopy; format: functional, cell-based; conditions: dose 10-250 nM
AGS [35] = test: Induction of cell cycle arrest in human AGS cells assessed as reduction in CDK1 gene expression at 50 nM measured after 48 hrs by RT-qPCR analysis; format: functional, cell-based
AGS [36] = test: Induction of cell cycle arrest in human AGS cells assessed as reduction in cyclinB1 gene expression at 50 nM measured after 48 hrs by RT-qPCR analysis; format: functional, cell-based
AGS [37] = test: Up regulation of E-cadherin expression in human AGS cells at 50 nM measured after 48 hrs by Western blot analysis; format: functional, cell-based
AGS [38] = test: Increase in PI3KCA mRNA expression in human AGS cells at 50 nM measured after 48 hrs by RT-qPCR analysis; format: functional, cell-based
AGS [39] = test: Reduction in beta-catenin mRNA expression in human AGS cells at 50 nM measured after 48 hrs by RT-qPCR analysis; format: functional, cell-based
AGS [40] = test: Increase in GSK-3beta mRNA expression in human AGS cells at 50 nM measured after 48 hrs by RT-qPCR analysis; format: functional, cell-based
AGS [41] = test: Increase in MEK mRNA expression in human AGS cells at 50 nM measured after 48 hrs by RT-qPCR analysis; format: functional, cell-based
AGS [42] = test: Down regulation of PI3KCA expression in human AGS cells at 50 nM measured after 48 hrs by Western blot analysis; format: functional, cell-based
AGS [43] = test: Inhibition of PI3K in human AGS cells assessed as decrease in AKT phosphorylation at 50 nM measured after 48 hrs by Western blot analysis; format: cell-based
AGS [44] = test: Inhibition of PI3K in human AGS cells assessed as decrease in AKT expression at 50 nM measured after 48 hrs by Western blot analysis; format: cell-based
AGS [45] = test: Induction of cell cycle arrest in human AGS cells assessed as reduction in CDK1 expression at 50 nM measured after 48 hrs by Western blot analysis; format: functional, cell-based
AGS [46] = test: Induction of apoptosis in human AGS cells assessed as up regulation of cleaved caspase-3 expression at 50 nM measured after 48 hrs by Western blot analysis; format: functional, cell-based
AGS [47] = test: Inhibition of PI3K in human AGS cells assessed as decrease in AKT mRNA expression at 50 nM measured after 48 hrs by RT-qPCR analysis; format: cell-based

## O=c1[nH]cc(F)c(=O)[nH]1 [FLUOROURACIL]
AGS [1]
  IC50: 58 µM
[2]
  IC50 at 48 h: > 100 µM

## Cn1c2nc3cc(F)ccc3c-2cc2ccccc21
AGS [3]
  Activity: Active
AGS [1]
  IC50: 0.043 µM
AGS [1]; DDE = dose-dependent effect
  Activity: Dde
HCT-116
  IC50: 18 µM
PANC-1
  IC50: > 50 µM
SMMC-7721
  IC50: 52 µM
[2]
  IC50 at 48 h: 40 µM
AGS [4]
  Activity: Tde
AGS [5]
  Activity: Dde
AGS [6]
  Activity: 66
AGS [7]
  Activity: Active
AGS [8]
  Activity: Active
AGS [9]
  Activity: Active
AGS [10]
  Activity: Active
AGS [11]
  Activity: Active
AGS [12]
  Activity: 35.82%
AGS [13]
  Activity: 42.57%
AGS [14]
  Activity: 21.61%
AGS [15]
  Activity: 29.43%
AGS [16]
  Activity: 45.6%
AGS [17]
  Activity: 24.97%
AGS [18]
  Activity: Active
AGS [19]
  Activity: Active
AGS [20]
  Activity: Active
AGS [21]
  Activity: Dde
AGS [22]
  viability at 0.01 µM: 88.6%
AGS [23]
  Activity: 1.8%
AGS [24]
  Activity: 7.3%
AGS [25]
  Activity: 2.2%
AGS [26]
  viability at 0.05 µM: 69.8%
AGS [27]
  Activity: 2.9%
AGS [28]
  Activity: 17.9%
AGS [29]
  Activity: 9.5%
AGS [30]
  viability at 0.25 µM: 24.3%
AGS [31]
  Activity: 7.7%
AGS [32]
  Activity: 37.1%
AGS [33]
  Activity: 30.9%
AGS [34]
  Activity: Active
AGS [35]
  Activity: Active
AGS [36]
  Activity: Active
AGS [37]
  Activity: Active
AGS [38]
  Activity: Active
AGS [39]
  Activity: Active
AGS [40]
  Activity: Active
AGS [41]
  Activity: Active
AGS [42]
  Activity: Active
AGS [43]
  inhibition: Active
AGS [44]
  inhibition: Active
AGS [45]
  Activity: Active
AGS [46]
  Activity: Active
AGS [47]
  inhibition: Active
